From PubChem BioAssay AID256 (DTP/NCI, 2004)
Toxic doses and inconclusive results are not listed.

Tested on: CD2F1 mice, L1210 leukemia ip, survival T/C
Test: NCI In Vivo Anticancer Drug Screen. Data for tumor model L1210 Leukemia (intraperitoneal) in CD2F1 (CDF1) mice
Settings: higher = longer survival
In short: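 Tumor-bearing mice (transplanted tumor) were split into treated and vehicle control groups, and the measured endpoint of each treated group was divided by that of its vehicle controls.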

[1] = endpoint: mean survival time, dose: 100.0 mg/kg/injection, schedule: Q04DX002 (ip), vehicle: saline with Tween-80
[2] = endpoint: mean survival time, dose: 200.0 mg/kg/injection, schedule: Q04DX002 (ip), vehicle: saline with Tween-80
[3] = endpoint: mean survival time, dose: 100.0 mg/kg/injection, schedule: Q04DX003 (ip), vehicle: saline
[4] = endpoint: mean survival time, dose: 200.0 mg/kg/injection, schedule: Q04DX003 (ip), vehicle: saline
[5] = endpoint: mean survival time, dose: 400.0 mg/kg/injection, schedule: Q04DX003 (ip), vehicle: saline
[6] = endpoint: mean survival time, dose: 50.0 mg/kg/injection, schedule: Q04DX002 (ip), vehicle: saline with Tween-80
[7] = endpoint: mean survival time, dose: 100.0 mg/kg/injection, schedule: Q01DX009 (ip), vehicle: saline with Tween-80
[8] = endpoint: mean survival time, dose: 100.0 mg/kg/injection, schedule: Q04DX003 (ip), vehicle: saline with Tween-80
[9] = endpoint: mean survival time, dose: 200.0 mg/kg/injection, schedule: Q01DX001 (ip), vehicle: saline with Tween-80
[10] = endpoint: mean survival time, dose: 200.0 mg/kg/injection, schedule: Q04DX003 (ip), vehicle: saline with Tween-80
[11] = endpoint: mean survival time, dose: 400.0 mg/kg/injection, schedule: Q01DX001 (ip), vehicle: saline with Tween-80
[12] = endpoint: mean survival time, dose: 400.0 mg/kg/injection, schedule: Q04DX003 (ip), vehicle: saline with Tween-80
[13] = endpoint: mean survival time, dose: 200.0 mg/kg/injection, schedule: Q01DX009 (ip), vehicle: saline with Tween-80
[14] = endpoint: mean survival time, dose: 400.0 mg/kg/injection, schedule: Q01DX009 (ip), vehicle: saline with Tween-80

`Cc1cc(NCCCN(C)C)c2ccc3c(ccc4c(NCCCN(C)C)cc(C)nc43)c2n1` was tested, and the T/C (endpoint: median survival time, dose: 0.38 mg/kg/injection, schedule: Q01DX009 (ip), vehicle: saline) was 95 % of control, the T/C (endpoint: median survival time, dose: 0.75 mg/kg/injection, schedule: Q01DX009 (ip), vehicle: saline) was 93 % of control and the T/C (endpoint: median survival time, dose: 1.5 mg/kg/injection, schedule: Q01DX009 (ip), vehicle: saline) was 113 % of control. The T/C (endpoint: median survival time, dose: 3.0 mg/kg/injection, schedule: Q01DX009 (ip), vehicle: saline) was 110 % of control.
In the case of `CSc1nn(C2OC(COC(=O)c3ccccc3)C(OC(=O)c3ccccc3)C2OC(=O)c2ccccc2)c(=O)[nH]c1=O` (centres undefined), the T/C (endpoint: mean survival time, dose: 12.5 mg/kg/injection, schedule: Q01DX005 (ip), vehicle: distilled water + Tween-80) is reported as 98 % of control, the T/C (endpoint: mean survival time, dose: 25.0 mg/kg/injection, schedule: Q01DX005 (ip), vehicle: distilled water + Tween-80) is reported as 93 % of control and the T/C (endpoint: mean survival time, dose: 50.0 mg/kg/injection, schedule: Q01DX005 (ip), vehicle: distilled water + Tween-80) is reported as 97 % of control. For the same compound, the T/C (endpoint: mean survival time, dose: 100.0 mg/kg/injection, schedule: Q01DX005 (ip), vehicle: distilled water + Tween-80) was 93 % of control and the T/C (endpoint: mean survival time, dose: 200.0 mg/kg/injection, schedule: Q01DX005 (ip), vehicle: distilled water + Tween-80) was 95 % of control.
`O=NN(CCBr)C(=O)Nc1ccccc1` was tested, and the T/C (endpoint: mean survival time, dose: 9.0 mg/kg/injection, schedule: Q01DX Z (ip), vehicle: carboxymethylcellulose (CMC)) was 150 % of control, the T/C (endpoint: mean survival time, dose: 18.0 mg/kg/injection, schedule: Q01DX Z (ip), vehicle: carboxymethylcellulose (CMC)) was 162 % of control and the T/C (endpoint: mean survival time, dose: 25.0 mg/kg/injection, schedule: Q01DX Z (ip), vehicle: carboxymethylcellulose (CMC)) was 158 % of control. For the same compound, the T/C (endpoint: mean survival time, dose: 37.0 mg/kg/injection, schedule: Q01DX Z (ip), vehicle: carboxymethylcellulose (CMC)) was 183 % of control, the T/C (endpoint: mean survival time, dose: 75.0 mg/kg/injection, schedule: Q01DX Z (ip), vehicle: carboxymethylcellulose (CMC)) was 115 % of control and the T/C (endpoint: mean survival time, dose: 100.0 mg/kg/injection, schedule: Q01DX Z (ip), vehicle: carboxymethylcellulose (CMC)) was 103 % of control. For the same compound, the T/C (endpoint: mean survival time, dose: 150.0 mg/kg/injection, schedule: Q01DX Z (ip), vehicle: carboxymethylcellulose (CMC)) was 90 % of control.
With `COc1cc2c(cc1Oc1c(O)c(OC)cc3c1C(C)N(C)CC3)C(C)N(C)CC2` (centres undefined) the T/C (endpoint: mean survival time, dose: 75.0 mg/kg/injection, schedule: Q01DX001 (ip), vehicle: saline) was 101 % of control.
In the case of `COc1ccc(OC)c(N=C2C(=O)Nc3ccc(Br)cc32)c1`, the T/C [1] is reported as 91 % of control and the T/C [2] is reported as 91 % of control.
For `CC(C)(Cl)[N+](=O)[O-]`, the T/C [3] was 98 % of control, the T/C [4] was 104 % of control and the T/C [5] was 96 % of control.
In the case of `Cc1c(OCC(=O)O)cc(Cl)c(Cl)c1Cl`, the T/C [6] is reported as 105 % of control, the T/C [1] is reported as 102 % of control and the T/C [2] is reported as 121 % of control.
In the case of `Cc1cn(C2CC(O)C(CO)O2)c(=O)nc1NC1CCCCCCCCCCC1` (centres undefined), the T/C (endpoint: median survival time, dose: 12.5 mg/kg/injection, schedule: Q01DX005 (ip), vehicle: distilled water + Tween-80) is reported as 103 % of control, the T/C (endpoint: median survival time, dose: 25.0 mg/kg/injection, schedule: Q01DX005 (ip), vehicle: distilled water + Tween-80) is reported as 102 % of control and the T/C (endpoint: median survival time, dose: 50.0 mg/kg/injection, schedule: Q01DX005 (ip), vehicle: distilled water + Tween-80) is reported as 96 % of control. For the same compound, the T/C (endpoint: median survival time, dose: 100.0 mg/kg/injection, schedule: Q01DX005 (ip), vehicle: distilled water + Tween-80) was 89 % of control.
In the case of `CCC(CC)N=C(N)N`, the T/C (endpoint: mean survival time, dose: 25.0 mg/kg/injection, schedule: Q01DX009 (ip), vehicle: saline with Tween-80) is reported as 100 % of control, the T/C (endpoint: mean survival time, dose: 25.0 mg/kg/injection, schedule: Q04DX003 (ip), vehicle: saline) is reported as 100 % of control and the T/C (endpoint: mean survival time, dose: 50.0 mg/kg/injection, schedule: Q01DX009 (ip), vehicle: saline with Tween-80) is reported as 93 % of control. For the same compound, the T/C (endpoint: mean survival time, dose: 50.0 mg/kg/injection, schedule: Q04DX003 (ip), vehicle: saline) was 97 % of control, the T/C [7] was 98 % of control and the T/C [3] was 94 % of control.
With `CC(C)CCC(=O)c1ccccc1` the T/C [6] was 87 % of control, the T/C [1] was 97 % of control and the T/C [2] was 91 % of control.
For `O=C1c2ccccc2C(=O)N1CN1CCC(CCCC2CCN(CN3C(=O)c4ccccc4C3=O)CC2)CC1`, the T/C (endpoint: mean survival time, dose: 25.0 mg/kg/injection, schedule: Q04DX003 (ip), vehicle: saline with Tween-80) was 95 % of control, the T/C (endpoint: mean survival time, dose: 50.0 mg/kg/injection, schedule: Q04DX003 (ip), vehicle: saline with Tween-80) was 95 % of control and the T/C [8] was 95 % of control.
For `COc1cc2cnccc2cc1O`, the T/C (endpoint: mean survival time, dose: 25.0 mg/kg/injection, schedule: Q01DX009 (ip), vehicle: water) was 95 % of control, the T/C (endpoint: mean survival time, dose: 50.0 mg/kg/injection, schedule: Q01DX009 (ip), vehicle: water) was 101 % of control and the T/C (endpoint: mean survival time, dose: 100.0 mg/kg/injection, schedule: Q01DX009 (ip), vehicle: water) was 96 % of control.
With `O=C(N/N=C/c1ccc2c(c1)CCC2)c1cccc([N+](=O)[O-])c1` the T/C [8] was 91 % of control, the T/C [9] was 94 % of control and the T/C [10] was 94 % of control. For the same compound, the T/C [11] was 101 % of control and the T/C [12] was 106 % of control.
In the case of `N#CC1CNC(N)NC1N` (centres undefined), the T/C (endpoint: mean survival time, dose: 50.0 mg/kg/injection, schedule: Q01DX009 (ip), vehicle: Klucel (hydroxypropylcellulose) (HPC)) is reported as 98 % of control, the T/C (endpoint: mean survival time, dose: 100.0 mg/kg/injection, schedule: Q01DX009 (ip), vehicle: Klucel (hydroxypropylcellulose) (HPC)) is reported as 91 % of control and the T/C (endpoint: mean survival time, dose: 200.0 mg/kg/injection, schedule: Q01DX009 (ip), vehicle: Klucel (hydroxypropylcellulose) (HPC)) is reported as 98 % of control.
With `CCOC(=O)NCCB(O)O` the T/C (endpoint: mean survival time, dose: 100.0 mg/kg/injection, schedule: Q04DX002 (ip), vehicle: saline) was 100 % of control, the T/C (endpoint: mean survival time, dose: 200.0 mg/kg/injection, schedule: Q04DX002 (ip), vehicle: saline) was 88 % of control and the T/C (endpoint: mean survival time, dose: 400.0 mg/kg/injection, schedule: Q04DX002 (ip), vehicle: saline) was 95 % of control.
For `CC(O)C1OC(n2cnc3c(=O)[nH]cnc32)CC1O` (centres undefined), the T/C (endpoint: median survival time, dose: 12.5 mg/kg/injection, schedule: Q01DX005 (ip), vehicle: water) was 100 % of control, the T/C (endpoint: median survival time, dose: 25.0 mg/kg/injection, schedule: Q01DX005 (ip), vehicle: water) was 100 % of control and the T/C (endpoint: median survival time, dose: 50.0 mg/kg/injection, schedule: Q01DX005 (ip), vehicle: water) was 104 % of control. The T/C (endpoint: median survival time, dose: 100.0 mg/kg/injection, schedule: Q01DX005 (ip), vehicle: water) was 102 % of control and the T/C (endpoint: median survival time, dose: 200.0 mg/kg/injection, schedule: Q01DX005 (ip), vehicle: water) was 102 % of control.
In the case of `CC(=O)CC(OC(=O)c1cc([N+](=O)[O-])cc([N+](=O)[O-])c1)(C(F)(F)F)C(F)(F)F`, the T/C (endpoint: mean survival time, dose: 100.0 mg/kg/injection, schedule: Q04DX003 (ip), vehicle: Klucel (hydroxypropylcellulose) (HPC)) is reported as 91 % of control.
`NNC(=O)Nc1ccccc1` was tested, and the T/C (endpoint: mean survival time, dose: 6.25 mg/kg/injection, schedule: Q01DX001 (ip), vehicle: saline with Tween-80) was 102 % of control, the T/C (endpoint: mean survival time, dose: 12.5 mg/kg/injection, schedule: Q01DX001 (ip), vehicle: saline with Tween-80) was 102 % of control and the T/C (endpoint: mean survival time, dose: 25.0 mg/kg/injection, schedule: Q01DX001 (ip), vehicle: saline with Tween-80) was 97 % of control.
`Cc1ccn(C)c(=N)c1` was tested, and the T/C (endpoint: mean survival time, dose: 100.0 mg/kg/injection, schedule: Q01DX009 (ip), vehicle: saline sonified) was 97 % of control, the T/C [8] was 94 % of control and the T/C (endpoint: mean survival time, dose: 200.0 mg/kg/injection, schedule: Q01DX009 (ip), vehicle: saline sonified) was 98 % of control. The T/C [10] was 93 % of control and the T/C [12] was 93 % of control.
In the case of `O=C(O)CNC(=O)CCNC(=O)OCc1ccccc1`, the T/C [7] is reported as 95 % of control, the T/C [13] is reported as 93 % of control and the T/C [14] is reported as 93 % of control.
With `CCOC(OCC)c1cc(-c2cnc(N)nc2N)cc(Cl)c1Cl` the T/C (endpoint: mean survival time, dose: 100.0 mg/kg/injection, schedule: Q01DX001 (ip), vehicle: saline with Tween-80) was 98 % of control, the T/C [9] was 97 % of control and the T/C [11] was 97 % of control.
`O=C(NCc1ccco1)C1COc2ccccc2O1` (centres undefined) was tested, and the T/C (endpoint: median survival time, dose: 25.0 mg/kg/injection, schedule: Q01DX009 (ip), vehicle: Klucel (hydroxypropylcellulose) (HPC)) was 103 % of control, the T/C (endpoint: median survival time, dose: 50.0 mg/kg/injection, schedule: Q01DX009 (ip), vehicle: Klucel (hydroxypropylcellulose) (HPC)) was 101 % of control and the T/C (endpoint: median survival time, dose: 100.0 mg/kg/injection, schedule: Q01DX009 (ip), vehicle: Klucel (hydroxypropylcellulose) (HPC)) was 103 % of control.
With `CC(=O)Nc1ccc(F)cc1` the T/C [3] was 105 % of control, the T/C [4] was 100 % of control and the T/C [5] was 95 % of control.
In the case of `O=C(O)C1CC(Br)C(Br)CC1C(=O)O` (centres undefined), the T/C [7] is reported as 95 % of control, the T/C [13] is reported as 100 % of control and the T/C [14] is reported as 91 % of control.
